Assay results reported in patent publication US9714233B2, “Processes and intermediates for making a JAK inhibitor” (Incyte Corporation, priority 2013, dated 2017).

Molecular target: T1, human JAK1 (a.a. 837-1142) catalytic domain (Homo sapiens, UniProt P23458)
T1 construct: human JAK1 (a.a. 837-1142); His tag (N); made in house; host or cells: insect cells (baculovirus)
Assay: In vitro JAK kinase assay (HTRF, phosphorylation of biotinylated peptide), JAK1
Type: biochemical
Conditions: measured at 1 mM ATP
Description: The compound of Formula I was tested for inhibitory activity of JAK targets according to the following in vitro assay described in Park et al., Analytical Biochemistry 1999, 269, 94-104. The catalytic domains of human JAK1 (a.a. 837-1142) and JAK2 (a.a. 828-1132) with an N-terminal His tag were expressed using baculovirus in insect cells and purified. The catalytic activity of JAK1 and JAK2 was assayed by measuring the phosphorylation of a biotinylated peptide. The phosphorylated peptide was detected by homogenous time resolved fluorescence (HTRF). IC50s of compounds were measured for each kinase in the 40 microL reactions that contain the enzyme, ATP and 500 nM peptide in 50 mM Tris (pH 7.8) buffer with 100 mM NaCl, 5 mM DTT, and 0.1 mg/mL (0.01%) BSA. For the 1 mM IC50 measurements, ATP concentration in the reactions was 1 mM. Reactions were carried out at room temperature for 1 hr and then stopped with 20 μL 45 mM EDTA, 300 nM SA-APC, 6 nM Eu-Py20 in assay buffer (Perkin Elmer, Boston, Mass.). Binding to the Europium labeled antibody took place for 40 minutes and HTRF signal was measured on a Fusion plate reader (Perkin Elmer, Boston, Mass.).

T1 sequence (P23458 849-1154 limits assumed): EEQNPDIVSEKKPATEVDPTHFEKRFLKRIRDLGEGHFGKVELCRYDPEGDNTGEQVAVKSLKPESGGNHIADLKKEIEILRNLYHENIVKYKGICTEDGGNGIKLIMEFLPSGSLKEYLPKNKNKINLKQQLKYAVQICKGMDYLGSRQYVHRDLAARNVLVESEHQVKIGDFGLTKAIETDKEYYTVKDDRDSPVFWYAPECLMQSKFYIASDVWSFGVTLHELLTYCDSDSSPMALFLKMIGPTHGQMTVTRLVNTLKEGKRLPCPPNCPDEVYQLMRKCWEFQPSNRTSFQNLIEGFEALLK

Work on N#CCC1(n2cc(-c3ncnc4[nH]ccc34)cn2)CN(C2CCN(C(=O)c3ccnc(C(F)(F)F)c3F)CC2)C1 [Formula I, {1-{1-[3-fluoro-2-(trifluoromethyl)isonicotinoyl]piperidin-4-yl}-3-[4-(7H-pyrrolo[2,3-d]pyrimidin-4-yl)-1H-pyrazol-1-yl]azetidin-3-yl}acetonitrile] yielded an IC50 of no more than 5 nM.
